Data reported in paper PMC11558128 (Advanced Science, 2024).
Like-named read-outs stand apart in the source and are kept apart here. Positions of bridges follow the written chain, without caps; N, C: chain ends. Residues, ends and D or L forms follow the SMILES beside them.

Columns and labels:
[1] = test system: acutely isolated rat cardiomyocytes; conditions: 3 mM, n = 6
[2] = target: T1, rKv4.2 (Rattus norvegicus, UniProt Q63881); experiment: cell-based; conditions: SEM; for IC50: whole-cell patch clamp, HEK293T, n = 3-8
T1 construct: expressed in transfected cells; host or cells: HEK293T
T1 sequence (Q63881 1-630): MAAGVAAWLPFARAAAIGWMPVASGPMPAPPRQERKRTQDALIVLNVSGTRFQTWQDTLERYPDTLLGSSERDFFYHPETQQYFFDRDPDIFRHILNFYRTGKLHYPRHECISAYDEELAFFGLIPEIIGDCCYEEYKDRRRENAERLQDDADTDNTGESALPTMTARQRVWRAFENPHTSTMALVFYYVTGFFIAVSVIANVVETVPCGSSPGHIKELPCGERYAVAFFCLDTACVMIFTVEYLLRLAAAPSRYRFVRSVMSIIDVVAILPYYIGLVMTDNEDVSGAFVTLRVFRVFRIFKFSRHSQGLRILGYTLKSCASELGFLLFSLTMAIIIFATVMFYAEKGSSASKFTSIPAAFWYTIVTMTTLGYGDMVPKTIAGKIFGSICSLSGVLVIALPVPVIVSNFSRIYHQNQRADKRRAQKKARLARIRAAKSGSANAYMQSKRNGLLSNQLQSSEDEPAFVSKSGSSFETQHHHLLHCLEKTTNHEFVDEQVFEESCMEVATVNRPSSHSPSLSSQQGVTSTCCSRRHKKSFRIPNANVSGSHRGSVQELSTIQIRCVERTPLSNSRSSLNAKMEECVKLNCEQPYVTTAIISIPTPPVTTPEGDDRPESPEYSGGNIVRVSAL

[3] = target: T2, rKv4.3 (Rattus norvegicus, UniProt Q62897); experiment: cell-based
T2 construct: expressed in transfected cells; host or cells: HEK293T
T2 sequence (Q62897 1-655): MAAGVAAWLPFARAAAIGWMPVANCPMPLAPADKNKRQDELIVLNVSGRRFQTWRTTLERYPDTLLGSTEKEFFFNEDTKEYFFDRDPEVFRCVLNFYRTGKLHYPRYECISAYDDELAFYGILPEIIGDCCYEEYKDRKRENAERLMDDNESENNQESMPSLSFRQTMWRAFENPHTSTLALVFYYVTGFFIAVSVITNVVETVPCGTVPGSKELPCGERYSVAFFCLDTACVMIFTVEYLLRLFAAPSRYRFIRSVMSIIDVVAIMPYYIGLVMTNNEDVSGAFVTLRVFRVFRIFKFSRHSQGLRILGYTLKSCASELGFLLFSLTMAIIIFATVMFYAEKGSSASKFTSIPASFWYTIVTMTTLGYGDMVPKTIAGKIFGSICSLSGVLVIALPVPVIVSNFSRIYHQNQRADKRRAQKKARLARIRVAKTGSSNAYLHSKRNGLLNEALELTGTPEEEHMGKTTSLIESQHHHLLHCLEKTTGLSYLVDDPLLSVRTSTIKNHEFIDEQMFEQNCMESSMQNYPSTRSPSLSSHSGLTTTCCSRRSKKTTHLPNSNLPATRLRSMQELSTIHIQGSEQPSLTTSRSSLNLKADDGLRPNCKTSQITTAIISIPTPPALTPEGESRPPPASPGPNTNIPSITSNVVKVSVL

[4] = target: T3, hNav1.7 (Homo sapiens, UniProt Q15858); experiment: cell-based; conditions: whole-cell patch clamp, HEK293T, SEM
T3 construct: expressed in transfected cells; host or cells: HEK293T
T3 sequence (O60939 30-215): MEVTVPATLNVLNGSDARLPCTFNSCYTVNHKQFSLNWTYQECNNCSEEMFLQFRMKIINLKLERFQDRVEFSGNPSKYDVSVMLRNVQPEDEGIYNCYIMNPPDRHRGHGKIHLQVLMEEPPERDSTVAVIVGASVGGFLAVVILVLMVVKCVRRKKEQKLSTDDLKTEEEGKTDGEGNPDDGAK
T3 sequence (Q15858 other isoform, or with tags, fused parts or gaps): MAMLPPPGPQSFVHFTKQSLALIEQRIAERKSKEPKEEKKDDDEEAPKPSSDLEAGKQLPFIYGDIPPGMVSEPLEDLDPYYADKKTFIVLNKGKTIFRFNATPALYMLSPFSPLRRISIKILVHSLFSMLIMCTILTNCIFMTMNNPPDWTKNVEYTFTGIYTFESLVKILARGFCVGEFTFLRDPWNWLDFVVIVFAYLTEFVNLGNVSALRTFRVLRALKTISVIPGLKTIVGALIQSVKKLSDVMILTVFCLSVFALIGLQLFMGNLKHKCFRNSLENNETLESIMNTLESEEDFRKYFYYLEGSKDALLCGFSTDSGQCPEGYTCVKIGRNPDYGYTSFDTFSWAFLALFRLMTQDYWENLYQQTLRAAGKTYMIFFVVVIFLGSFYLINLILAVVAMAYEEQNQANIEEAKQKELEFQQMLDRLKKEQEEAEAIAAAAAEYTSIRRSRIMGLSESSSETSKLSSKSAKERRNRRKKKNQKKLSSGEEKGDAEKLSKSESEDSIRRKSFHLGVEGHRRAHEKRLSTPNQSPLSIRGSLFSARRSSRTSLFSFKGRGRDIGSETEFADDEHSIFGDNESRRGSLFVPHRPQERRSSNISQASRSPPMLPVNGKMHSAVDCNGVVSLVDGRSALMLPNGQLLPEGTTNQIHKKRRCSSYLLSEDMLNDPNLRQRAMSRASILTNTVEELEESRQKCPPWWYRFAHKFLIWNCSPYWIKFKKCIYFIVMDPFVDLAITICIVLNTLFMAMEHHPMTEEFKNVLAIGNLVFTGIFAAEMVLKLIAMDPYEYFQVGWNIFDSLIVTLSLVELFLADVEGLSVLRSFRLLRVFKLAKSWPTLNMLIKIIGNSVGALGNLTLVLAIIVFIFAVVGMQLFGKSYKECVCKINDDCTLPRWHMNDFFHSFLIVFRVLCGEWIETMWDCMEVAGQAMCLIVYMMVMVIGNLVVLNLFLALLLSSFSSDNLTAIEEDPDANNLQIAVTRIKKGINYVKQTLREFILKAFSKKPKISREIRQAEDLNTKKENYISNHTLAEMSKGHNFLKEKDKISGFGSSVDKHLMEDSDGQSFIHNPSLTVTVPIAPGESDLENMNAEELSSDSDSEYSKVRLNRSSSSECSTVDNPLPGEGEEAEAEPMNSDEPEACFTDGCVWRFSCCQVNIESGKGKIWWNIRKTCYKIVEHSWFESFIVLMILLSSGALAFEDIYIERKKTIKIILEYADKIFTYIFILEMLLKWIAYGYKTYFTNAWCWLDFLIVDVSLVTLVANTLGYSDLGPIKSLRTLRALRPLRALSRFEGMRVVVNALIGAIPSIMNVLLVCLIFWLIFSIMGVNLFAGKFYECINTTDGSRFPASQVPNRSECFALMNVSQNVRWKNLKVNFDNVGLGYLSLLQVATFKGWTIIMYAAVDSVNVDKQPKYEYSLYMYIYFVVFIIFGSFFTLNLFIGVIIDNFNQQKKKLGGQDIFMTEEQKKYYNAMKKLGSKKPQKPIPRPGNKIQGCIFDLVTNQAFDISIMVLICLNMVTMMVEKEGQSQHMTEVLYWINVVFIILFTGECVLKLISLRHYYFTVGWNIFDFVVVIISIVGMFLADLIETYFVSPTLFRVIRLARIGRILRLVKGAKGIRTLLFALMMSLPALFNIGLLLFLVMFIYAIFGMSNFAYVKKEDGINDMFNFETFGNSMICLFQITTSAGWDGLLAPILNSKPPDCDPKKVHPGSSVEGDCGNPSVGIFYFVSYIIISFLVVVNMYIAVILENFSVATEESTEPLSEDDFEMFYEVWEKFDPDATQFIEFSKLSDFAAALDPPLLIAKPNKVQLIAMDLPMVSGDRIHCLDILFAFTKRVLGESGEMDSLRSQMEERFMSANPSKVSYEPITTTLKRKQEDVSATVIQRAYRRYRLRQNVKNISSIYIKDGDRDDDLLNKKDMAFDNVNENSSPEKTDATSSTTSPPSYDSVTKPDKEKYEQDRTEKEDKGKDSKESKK
T3 sequence (Q07699 19-218, further chain): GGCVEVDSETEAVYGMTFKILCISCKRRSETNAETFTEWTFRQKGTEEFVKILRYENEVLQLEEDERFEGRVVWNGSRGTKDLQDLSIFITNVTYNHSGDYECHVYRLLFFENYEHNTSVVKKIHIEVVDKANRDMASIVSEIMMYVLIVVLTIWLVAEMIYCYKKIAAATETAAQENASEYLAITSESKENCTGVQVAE

[5] = same toxin concentrations (footnote b160), mean ± S.E.M., SEM
[6] = mean ± SEM, this study, read-out: IC50 on hNav1.7
[7] = mean ± SEM, read-out: IC50 on rKv4.2 WT

## Nc1ccncc1 [4-AP, 4-aminopyridine]
[1]
  effect on action potential duration (APD), 4-AP: significantly prolonged

## CC(C)C[C@H](NC(=O)[C@H](CC(=O)O)NC(=O)[C@H](Cc1ccc(O)cc1)NC(=O)[C@H](CCCCN)NC(=O)[C@@H]1CSSC[C@@H]2NC(=O)[C@H](CCC(N)=O)NC(=O)[C@H](CC(=O)O)NC(=O)[C@H](CC(N)=O)NC(=O)[C@H](CO)NC(=O)[C@@H]3CCCN3C(=O)[C@H](CC(N)=O)NC(=O)[C@@H]3CSSC[C@H](NC(=O)[C@H](C(C)C)NC(=O)[C@H](CC(C)C)NC(=O)[C@H](CO)NC(=O)[C@H](CO)NC(=O)[C@H](CO)NC(=O)[C@H](CCCCN)NC(=O)[C@H](CSSC[C@H](NC(=O)[C@H](C)N)C(=O)N[C@@H](CC(C)C)C(=O)NCC(=O)N[C@@H](Cc4ccccc4)C(=O)NCC(=O)N[C@@H](CCC(=O)O)C(=O)N[C@@H](CCCCN)C(=O)N3)NC2=O)C(=O)N[C@@H](CO)C(=O)N[C@@H](CCC(N)=O)C(=O)N[C@@H](CCCCN)C(=O)N[C@@H](Cc2c[nH]cn2)C(=O)N[C@@H](CCCCN)C(=O)N[C@@H](Cc2c[nH]c3ccccc23)C(=O)N1)C(N)=O [Ca2a]
[2]; Hill fit of concentration-response curves, mean ± S.E.M., n = 4-8
  Hill coefficients on rKv4.2: 1.05 ± 0.17
[2]
  rKv4.2 voltage dependence of activation, V1/2 with toxin: 42.0±2.1 mV
  rKv4.2 voltage dependence of inactivation, V1/2 with toxin: -54.3±1.4 mV
[3]; SEM
  rKv4.3 voltage dependence of activation, V1/2 with toxin: 59.0±3.0 mV
  rKv4.3 voltage dependence of inactivation, V1/2 with toxin: -48.1±2.0 mV
[3]; [5]
  rKv4.3 voltage dependence of activation, κ with toxin: 12.2±0.9 mV
  rKv4.3 voltage dependence of inactivation, κ with toxin: 4.5±0.2 mV
[3]; sub-saturation concentration
  influence on the steady-state inactivation of rKv4.3: almost no influence

## CC(C)C[C@H](NC(=O)[C@H](Cc1ccc(O)cc1)NC(=O)[C@@H](NC(=O)[C@H](CCCCN)NC(=O)[C@@H]1CSSC[C@@H]2NC(=O)[C@H](CCC(=O)O)NC(=O)[C@H](CC(N)=O)NC(=O)[C@H](CCCCN)NC(=O)CNC(=O)[C@@H]3CCCN3C(=O)[C@H]([C@@H](C)O)NC(=O)[C@@H]3CSSC[C@H](NC(=O)[C@H](C)NC(=O)[C@H](Cc4ccc(O)cc4)NC(=O)[C@H](C)NC(=O)[C@@H]4CCCN4C(=O)[C@H](CSSC[C@H](NC(=O)CN)C(=O)N[C@@H](CCCCN)C(=O)NCC(=O)N[C@@H](Cc4ccccc4)C(=O)NCC(=O)N[C@@H](CC(=O)O)C(=O)N[C@@H](CO)C(=O)N3)NC2=O)C(=O)N[C@@H](CO)C(=O)N[C@@H](CO)C(=O)N[C@@H](CCCCN)C(=O)N[C@@H](Cc2c[nH]cn2)C(=O)N[C@@H](CCCCN)C(=O)N[C@@H](Cc2c[nH]c3ccccc23)C(=O)N1)C(C)C)C(N)=O [N19A] (H-GCKGFGDSCTPGKNECCPAYACSSKHKWCKVYL-NH2; disulfide 2-17, 9-22, 16-29)
[4]; [6]
  IC50: 116 ± 9 nM
[2]; [7]
  IC50: 64 ± 9 nM

## CC(C)C[C@H](NC(=O)[C@H](Cc1ccc(O)cc1)NC(=O)[C@@H](NC(=O)[C@H](CCCCN)NC(=O)[C@@H]1CSSC[C@@H]2NC(=O)[C@H](CCC(=O)O)NC(=O)[C@H](CC(N)=O)NC(=O)[C@H](CCCCN)NC(=O)CNC(=O)[C@@H]3CCCN3C(=O)[C@H]([C@@H](C)O)NC(=O)[C@@H]3CSSC[C@H](NC(=O)[C@H](C)NC(=O)[C@H](C)NC(=O)[C@H](CC(N)=O)NC(=O)[C@@H]4CCCN4C(=O)[C@H](CSSC[C@H](NC(=O)CN)C(=O)N[C@@H](CCCCN)C(=O)NCC(=O)N[C@@H](Cc4ccccc4)C(=O)NCC(=O)N[C@@H](CC(=O)O)C(=O)N[C@@H](CO)C(=O)N3)NC2=O)C(=O)N[C@@H](CO)C(=O)N[C@@H](CO)C(=O)N[C@@H](CCCCN)C(=O)N[C@@H](Cc2c[nH]cn2)C(=O)N[C@@H](CCCCN)C(=O)N[C@@H](Cc2c[nH]c3ccccc23)C(=O)N1)C(C)C)C(N)=O [Y20A] (H-GCKGFGDSCTPGKNECCPNAACSSKHKWCKVYL-NH2; disulfide 2-17, 9-22, 16-29)
[4]; [6]
  IC50: 7160 ± 528 nM
[2]; [7]
  IC50: 4000 ± 2000 nM

## CC(C)C[C@H](NC(=O)[C@H](Cc1ccc(O)cc1)NC(=O)[C@@H](NC(=O)[C@H](CCCCN)NC(=O)[C@@H]1CSSC[C@@H]2NC(=O)[C@H](CCC(=O)O)NC(=O)[C@H](CC(N)=O)NC(=O)[C@H](CCCCN)NC(=O)CNC(=O)[C@@H]3CCCN3C(=O)[C@H]([C@@H](C)O)NC(=O)[C@@H]3CSSC[C@H](NC(=O)[C@H](C)NC(=O)[C@H](Cc4c[nH]c5ccccc45)NC(=O)[C@H](CC(N)=O)NC(=O)[C@@H]4CCCN4C(=O)[C@H](CSSC[C@H](NC(=O)CN)C(=O)N[C@@H](CCCCN)C(=O)NCC(=O)N[C@@H](Cc4ccccc4)C(=O)NCC(=O)N[C@@H](CC(=O)O)C(=O)N[C@@H](CO)C(=O)N3)NC2=O)C(=O)N[C@@H](CO)C(=O)N[C@@H](CO)C(=O)N[C@@H](CCCCN)C(=O)N[C@@H](Cc2c[nH]cn2)C(=O)N[C@@H](CCCCN)C(=O)N[C@@H](Cc2c[nH]c3ccccc23)C(=O)N1)C(C)C)C(N)=O [Y20W] (H-GCKGFGDSCTPGKNECCPNWACSSKHKWCKVYL-NH2; disulfide 2-17, 9-22, 16-29)
[4]; [6]
  IC50: 495 ± 39 nM
[2]; [7]
  IC50: 228 ± 33 nM

## CC(C)C[C@H](NC(=O)[C@H](C)NC(=O)[C@@H](NC(=O)[C@H](CCCCN)NC(=O)[C@@H]1CSSC[C@@H]2NC(=O)[C@H](CCC(=O)O)NC(=O)[C@H](CC(N)=O)NC(=O)[C@H](CCCCN)NC(=O)CNC(=O)[C@@H]3CCCN3C(=O)[C@H]([C@@H](C)O)NC(=O)[C@@H]3CSSC[C@H](NC(=O)[C@H](C)NC(=O)[C@H](Cc4ccc(O)cc4)NC(=O)[C@H](CC(N)=O)NC(=O)[C@@H]4CCCN4C(=O)[C@H](CSSC[C@H](NC(=O)CN)C(=O)N[C@@H](CCCCN)C(=O)NCC(=O)N[C@@H](Cc4ccccc4)C(=O)NCC(=O)N[C@@H](CC(=O)O)C(=O)N[C@@H](CO)C(=O)N3)NC2=O)C(=O)N[C@@H](CO)C(=O)N[C@@H](CO)C(=O)N[C@@H](CCCCN)C(=O)N[C@@H](Cc2c[nH]cn2)C(=O)N[C@@H](CCCCN)C(=O)N[C@@H](Cc2c[nH]c3ccccc23)C(=O)N1)C(C)C)C(N)=O [Y32A] (H-GCKGFGDSCTPGKNECCPNYACSSKHKWCKVAL-NH2; disulfide 2-17, 9-22, 16-29)
[4]; [6]
  IC50: 936 ± 123 nM
[2]; [7]
  IC50: 1000 ± 177 nM

## CC[C@H](C)[C@@H]1NC(=O)[C@@H]2CSSC[C@@H]3NC(=O)[C@H](C(C)C)NC(=O)[C@H](CC(C)C)NC(=O)[C@H](CC(N)=O)NC(=O)[C@@H]4CCCN4C(=O)[C@H](CCCNC(=N)N)NC(=O)[C@H](CSSC[C@H](NC(=O)[C@@H](N)CC(=O)O)C(=O)N[C@@H](CC(C)C)C(=O)NCC(=O)N[C@@H](C)C(=O)N[C@@H](Cc4ccccc4)C(=O)N[C@@H](CCCNC(=N)N)C(=O)N[C@@H](CCCCN)C(=O)N2)NC(=O)[C@H](CSSC[C@@H](C(=O)N[C@@H](CCCCN)C(=O)N[C@@H](Cc2ccc(O)cc2)C(=O)N[C@H](C(=O)N[C@@H](Cc2ccccc2)C(N)=O)C(C)C)NC(=O)[C@H](Cc2c[nH]c4ccccc24)NC(=O)[C@H](CCCNC(=N)N)NC(=O)[C@H](Cc2c[nH]cn2)NC(=O)[C@H](CC(C)C)NC(=O)[C@H](C)NC(=O)[C@H](CO)NC3=O)NC(=O)[C@H](CCCCN)NC(=O)[C@H](CC(=O)O)NC(=O)[C@H](CC(N)=O)NC(=O)[C@H](CC(=O)O)NC(=O)[C@@H]2CCCN2C1=O [mGpTx1-R25A] (H-DCLGAFRKCIPDNDKCCRPNLVCSALHRWCKYVF-NH2; disulfide 2-17, 9-23, 16-30)
[4]; hNav1.7 with β1 and β2, held at -90 mV, step to 0 mV, mean ± S.E.M., n = 3-7, read-out: IC50 for hNav1.7
  IC50: 1.3 ± 0.1 nM
[2]; held at -80 mV, step to 0 mV, mean ± S.E.M., read-out: IC50 for rKv4.2
  IC50: 57.2 ± 6.2 nM
